# Results reported in patent US6365126B1, “Learning and short term memory defects with Neurofibromatosis 1 (NF1) expression” (Cold Spring Harbor Laboratory, priority 1997, dated 2002).
# Read-outs that look alike come from different tables or passages of the source.
# How the values were obtained:
# [1] = test system: K^+ currents of body-wall muscle fibers; settings: cited from earlier work
# [2] = test system: K^+ currents of body-wall muscle fibers; assay: Two-microelectrode voltage-clamp recording of PACAP38-induced responses, larval body-wall neuromuscular preparation; design: species or system Drosophila
# Description: PACAP38-induced responses were recorded by the two-microelectrode voltage-clamp method from body-wall muscle fibers of larvae at the third instar (Zhong, Y., Nature, 375:588-592 (1995); Arimura, A. Regulatory Peptides, 37:287-303 (1992); Spengler, D. et al., Nature, 365:170-175 (1993); Jan, L. Y. et al., J. Physiol., 262:189-214 (1976); Wu, C.-F. et al., Science, 220:1076-1078 (1983); Stewart, B. A. et al., J. Comp. Physiol., 175:179-191 (1994)). Electrophysiological recording: The larval body-wall neuromuscular preparation has been described (Zhong, Y. et al., Neuron, 14:527-536 (1995); Zhong, Y., Nature, 375:588-592 (1995); Jan, L. Y. et al., J. Physiol., 262:189-214 (1976); Wu, C.-F. et al., Science, 220:1076-1078 (1983); Stewart, B. A. et al., J Comp Physiol., 175:179-191 (1994)). The setup, saline, recording conditions and voltage paradigms were as described (Zhong, Y. et al., Neuron, 14:527-536 (1995); Zhong, Y., Nature, 375:588-592 (1995)). For recording the PACAP38-induced synaptic current, the membrane potential was clamped at −80 mV. For recording K^+ currents, command voltages were stepped from the holding potential of −80 to −50 and +20 mV, respectively. […] PACAP38 was applied by pressure ejection through a glass electrode positioned near the voltage-clamped muscle membrane. Forskolin and cAMP analogs were applied to the solution bathing the preparation.
# adenylyl cyclase = assay: Adenylyl cyclase activity assay, membrane fractions of adult brain tissues; type: biochemical, Drosophila; settings: GTPγS 20 μM
# Description: The adenylyl cyclase activity assay described in Livingstone, M. S., Proc. Natl. Acad. Sci. USA, 82:5992-5996 (1985)) was modified as follows. The membrane fraction was extracted from either male heads with the cuticle removed to leave essentially brain tissue, or from 10 male abdomens. Twenty (20) dissected brains in 850 μl lysis buffer were homogenized, and the membrane fraction was extracted by centrifugation at 178,000 g for 10 minutes. GTPγS (final concentration, 20 μM) was added to stimulate G-protein activated adenylyl cyclase activity immediately after homogenization but before centrifugation. When assaying the basal level of adenylyl cyclase activity, GTPγS was not added. These modifications seemed to amplify the NF1 effect. Calcium concentrations were calculated according to MaxChelator v1.31 (Bers, D. M. et al., Methods. Cell. Biol., 40:3-29 (1994)). […] Biochemical assays provide direct evidence to support the electrophysiological data. Previous experiments have shown that Rut-AC expressed in a cell line can be stimulated not only by Ca^2+/calmodulin, but also by reagents that stimulate G-proteins, including GTPγS and AIF4^- (see Levin, L. R. et al., Cell, 68:479-489 (1992)). First, AC activity in membrane fractions of adult brain tissues was examined. […] Thus, GTPγS-stimulated AC activity consists of two components: one that is NF1-dependent and one that is NF1-independent.
molecule,measurement,setting,value
CCCC(=O)Nc1ncnc2c1ncn2[C@@H]1O[C@@H]2COP(=O)(O)O[C@H]2[C@H]1OC(=O)CCC [dibutyryl cAMP],PACAP38-like enhancement of K^+ currents by cAMP analog alone,"[1]; larval neuromuscular preparation, no PACAP38",insufficient
same,effect of cAMP analog on the PACAP38 response,"[2]; NF1 mutants (NF1^P2 homozygotes, NF1^P1/NF1^P2 larvae)",restore the normal response to PACAP38
same,effect of cAMP analog on the PACAP38 response,[2]; wild-type larvae,appeared not to disrupt the PACAP38 response
Nc1nc2c(ncn2[C@@H]2O[C@H](COP(=O)(O)OP(=O)(O)OP(O)(O)=S)[C@@H](O)[C@H]2O)c(=O)[nH]1 [GTPγS],GTPγS stimulated AC activity compared with control (K33),adenylyl cyclase; NF1^P1 and NF1^P2 mutant membranes,markedly reduced
same,GTPγS-stimulated activity compared with the basal level,adenylyl cyclase; NF1 mutant membranes,significant GTPγS-stimulated activity occurred above the basal level
PACAP38,PACAP38-induced enhancement of K^+ currents,"[1]; wild-type larvae, perfusion to the neuromuscular junction",100 fold
same,PACAP38-induced enhancement of K^+ currents,[2]; Gap1 null mutants rI^533B1 and rI^533PB,normal enhancement
same,PACAP38-induced enhancement of K^+ currents,[2]; NF1^P1 and NF1^P2 mutant larvae,abolished
same,PACAP38-induced inward current,"[2]; NF1^P1 and NF1^P2 mutant larvae, membrane potential clamped at -80 mV",remained mostly intact
